Laboratory results as given in PubChem BioAssay AID1963429 (Molecular Pharmacology Branch, DTP, NCI, 2024).
Blank lines part the entries; values can stand above or below the compound they belong to.

System: 126254-015-R-J1-PDC complex spheroid growth, % test/control
Experiment: Anticancer human tumor 126254-015-R-J1-PDC patient-derived soft tissue sarcoma cell line growth inhibition [Asc]
Details: for IC50: curve of first compound; for viability, T/C: stronger effect = lower value
How it was run: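 Complex solid-tumor spheroids incorporating human endothelial and mesenchymal stem cells received single agents or combinations over half-log dilution ranges anchored to clinical Cmax.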

[1] = second compound 0.03 µM, first compound 0.0316 µM
[2] = second compound 0.03 µM, first compound 0.1 µM
[3] = second compound 0.03 µM, first compound 0.316 µM
[4] = second compound 0.03 µM, first compound 1 µM
[5] = second compound 0.03 µM, first compound 3.16 µM
[6] = second compound 0.03 µM, first compound 10 µM
[7] = second compound 0.0949 µM, first compound 0.0316 µM
[8] = second compound 0.0949 µM, first compound 0.1 µM
[9] = second compound 0.0949 µM, first compound 0.316 µM
[10] = second compound 0.0949 µM, first compound 1 µM
[11] = second compound 0.0949 µM, first compound 3.16 µM
[12] = second compound 0.0949 µM, first compound 10 µM
[13] = second compound 0.3 µM, first compound 0.0316 µM
[14] = second compound 0.3 µM, first compound 0.1 µM
[15] = second compound 0.3 µM, first compound 0.316 µM
[16] = second compound 0.3 µM, first compound 1 µM
[17] = second compound 0.3 µM, first compound 3.16 µM
[18] = second compound 0.3 µM, first compound 10 µM
[19] = second compound 0.949 µM, first compound 0.0316 µM
[20] = second compound 0.949 µM, first compound 0.1 µM
[21] = second compound 0.949 µM, first compound 0.316 µM
[22] = second compound 0.949 µM, first compound 1 µM
[23] = second compound 0.949 µM, first compound 3.16 µM
[24] = second compound 0.949 µM, first compound 10 µM
[25] = second compound 3 µM, first compound 0.0316 µM
[26] = second compound 3 µM, first compound 0.1 µM
[27] = second compound 3 µM, first compound 0.316 µM
[28] = second compound 3 µM, first compound 1 µM
[29] = second compound 3 µM, first compound 3.16 µM
[30] = second compound 3 µM, first compound 10 µM
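Note: spheroids exposed to compound for seven days.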
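Throughout, for viability, T/C: 100% = DMSO vehicle control wells.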

IC50 (second compound 0.03 µM): > 10 µM
IC50 (second compound 0.0949 µM): > 10 µM
IC50 (second compound 0.3 µM): > 10 µM
IC50 (second compound 0.949 µM): > 10 µM
IC50 (second compound 3 µM): > 10 µM
SMILES: O=C(c1cc(Cc2n[nH]c(=O)c3ccccc23)ccc1F)N1CCN(C(=O)C2CC2)CC1 + CCN1C(C(=O)NC23CCC(C(=O)O)(CC2)CC3)C(c2cccc(Cl)c2F)C2(C(=O)Nc3cc(Cl)ccc32)C12CCCCC2
viability, T/C [1]: 95.7%
viability, T/C [2]: 87.7%
viability, T/C [3]: 90.3%
viability, T/C [4]: 74.5%
viability, T/C [5]: 84.1%
viability, T/C [6]: 60%
viability, T/C [7]: 95.5%
viability, T/C [8]: 100%
viability, T/C [9]: 87.7%
viability, T/C [10]: 97.4%
viability, T/C [11]: 83.2%
viability, T/C [12]: 59.2%
viability, T/C [13]: 98.4%
viability, T/C [14]: 90.9%
viability, T/C [15]: 92.2%
viability, T/C [16]: 83.6%
viability, T/C [17]: 77.2%
viability, T/C [18]: 59%
viability, T/C [19]: 90%
viability, T/C [20]: 97%
viability, T/C [21]: 93.6%
viability, T/C [22]: 83.9%
viability, T/C [23]: 73.8%
viability, T/C [24]: 59.3%
viability, T/C [25]: 88.8%
viability, T/C [26]: 90.5%
viability, T/C [27]: 93.7%
viability, T/C [28]: 85.4%
viability, T/C [29]: 73.1%
viability, T/C [30]: 70.5%

IC50 (second compound 0.01 µM): > 0.1 µM
IC50 (second compound 0.0316 µM): > 0.1 µM
IC50 (second compound 0.1 µM): 0.0562 µM
IC50 (second compound 0.316 µM): 0.0131 µM
IC50 (second compound 1 µM): 0.01 µM
SMILES: Cn1ncnc1[C@H]1c2n[nH]c(=O)c3cc(F)cc(c23)N[C@@H]1c1ccc(F)cc1 + CNC(C)C(=O)NC1CN(S(=O)(=O)c2cccc(S(=O)(=O)N3CCC4CCC(C(=O)NC(c5ccccc5)c5ccccc5)N4C(=O)C(NC(=O)C(C)NC)C3)c2)CCC2CCC(C(=O)NC(c3ccccc3)c3ccccc3)N2C1=O
viability, T/C (second compound 0.01 µM, first compound 0.000316 µM): 82.1%
viability, T/C (second compound 0.01 µM, first compound 0.001 µM): 82.3%
viability, T/C (second compound 0.01 µM, first compound 0.00316 µM): 78.2%
viability, T/C (second compound 0.01 µM, first compound 0.01 µM): 79.6%
viability, T/C (second compound 0.01 µM, first compound 0.0316 µM): 77.3%
viability, T/C (second compound 0.01 µM, first compound 0.1 µM): 63.1%
viability, T/C (second compound 0.0316 µM, first compound 0.000316 µM): 71%
viability, T/C (second compound 0.0316 µM, first compound 0.001 µM): 77.3%
viability, T/C (second compound 0.0316 µM, first compound 0.00316 µM): 71%
viability, T/C (second compound 0.0316 µM, first compound 0.01 µM): 61.4%
viability, T/C (second compound 0.0316 µM, first compound 0.0316 µM): 56.1%
viability, T/C (second compound 0.0316 µM, first compound 0.1 µM): 58.1%
viability, T/C (second compound 0.1 µM, first compound 0.000316 µM): 67.3%
viability, T/C (second compound 0.1 µM, first compound 0.001 µM): 67.4%
viability, T/C (second compound 0.1 µM, first compound 0.00316 µM): 60.5%
viability, T/C (second compound 0.1 µM, first compound 0.01 µM): 55.8%
viability, T/C (second compound 0.1 µM, first compound 0.0316 µM): 58.4%
viability, T/C (second compound 0.1 µM, first compound 0.1 µM): 44.7%
viability, T/C (second compound 0.316 µM, first compound 0.000316 µM): 56%
viability, T/C (second compound 0.316 µM, first compound 0.001 µM): 70.9%
viability, T/C (second compound 0.316 µM, first compound 0.00316 µM): 59.2%
viability, T/C (second compound 0.316 µM, first compound 0.01 µM): 51.8%
viability, T/C (second compound 0.316 µM, first compound 0.0316 µM): 44.4%
viability, T/C (second compound 0.316 µM, first compound 0.1 µM): 41%
viability, T/C (second compound 1 µM, first compound 0.000316 µM): 53.2%
viability, T/C (second compound 1 µM, first compound 0.001 µM): 63.7%
viability, T/C (second compound 1 µM, first compound 0.00316 µM): 56.2%
viability, T/C (second compound 1 µM, first compound 0.01 µM): 42.4%
viability, T/C (second compound 1 µM, first compound 0.0316 µM): 46.8%
viability, T/C (second compound 1 µM, first compound 0.1 µM): 44.1%

IC50 (second compound 0.03 µM): > 1 µM
IC50 (second compound 0.0949 µM): > 1 µM
IC50 (second compound 0.3 µM): > 1 µM
IC50 (second compound 0.949 µM): > 1 µM
IC50 (second compound 3 µM): > 1 µM
SMILES: CNC(C)C(=O)NC1CN(S(=O)(=O)c2cccc(S(=O)(=O)N3CCC4CCC(C(=O)NC(c5ccccc5)c5ccccc5)N4C(=O)C(NC(=O)C(C)NC)C3)c2)CCC2CCC(C(=O)NC(c3ccccc3)c3ccccc3)N2C1=O (stereo not given) + CCN1C(C(=O)NC23CCC(C(=O)O)(CC2)CC3)C(c2cccc(Cl)c2F)C2(C(=O)Nc3cc(Cl)ccc32)C12CCCCC2
viability, T/C (second compound 0.03 µM, first compound 0.00316 µM): 108%
viability, T/C (second compound 0.03 µM, first compound 0.01 µM): 94.3%
viability, T/C [1]: 76.7%
viability, T/C [2]: 61.4%
viability, T/C [3]: 50.6%
viability, T/C [4]: 56.6%
viability, T/C (second compound 0.0949 µM, first compound 0.00316 µM): 104%
viability, T/C (second compound 0.0949 µM, first compound 0.01 µM): 106%
viability, T/C [7]: 78.5%
viability, T/C [8]: 67.2%
viability, T/C [9]: 52.6%
viability, T/C [10]: 57.6%
viability, T/C (second compound 0.3 µM, first compound 0.00316 µM): 96%
viability, T/C (second compound 0.3 µM, first compound 0.01 µM): 92.9%
viability, T/C [13]: 96.4%
viability, T/C [14]: 65.3%
viability, T/C [15]: 62%
viability, T/C [16]: 55.8%
viability, T/C (second compound 0.949 µM, first compound 0.00316 µM): 103%
viability, T/C (second compound 0.949 µM, first compound 0.01 µM): 90.4%
viability, T/C [19]: 79.6%
viability, T/C [20]: 66%
viability, T/C [21]: 58%
viability, T/C [22]: 55.7%
viability, T/C (second compound 3 µM, first compound 0.00316 µM): 85.7%
viability, T/C (second compound 3 µM, first compound 0.01 µM): 80.8%
viability, T/C [25]: 84.6%
viability, T/C [26]: 65.3%
viability, T/C [27]: 53.9%
viability, T/C [28]: 59.2%

IC50 (second compound 0.03 µM): > 10 µM
IC50 (second compound 0.0949 µM): > 10 µM
IC50 (second compound 0.3 µM): > 10 µM
IC50 (second compound 0.949 µM): > 10 µM
IC50 (second compound 3 µM): > 10 µM
SMILES: C=CC(=O)N1CCN(c2nc(=O)n(-c3c(C)ccnc3C(C)C)c3nc(-c4c(O)cccc4F)c(F)cc23)C(C)C1 (stereo not given) + CCN1C(C(=O)NC23CCC(C(=O)O)(CC2)CC3)C(c2cccc(Cl)c2F)C2(C(=O)Nc3cc(Cl)ccc32)C12CCCCC2
viability, T/C [1]: 94.8%
viability, T/C [2]: 114%
viability, T/C [3]: 106%
viability, T/C [4]: 103%
viability, T/C [5]: 114%
viability, T/C [6]: 89%
viability, T/C [7]: 110%
viability, T/C [8]: 92.6%
viability, T/C [9]: 98.1%
viability, T/C [10]: 104%
viability, T/C [11]: 111%
viability, T/C [12]: 88.5%
viability, T/C [13]: 98.4%
viability, T/C [14]: 121%
viability, T/C [15]: 106%
viability, T/C [16]: 112%
viability, T/C [17]: 105%
viability, T/C [18]: 98.5%
viability, T/C [19]: 94.9%
viability, T/C [20]: 109%
viability, T/C [21]: 106%
viability, T/C [22]: 120%
viability, T/C [23]: 110%
viability, T/C [24]: 84.2%
viability, T/C [25]: 109%
viability, T/C [26]: 109%
viability, T/C [27]: 106%
viability, T/C [28]: 109%
viability, T/C [29]: 109%
viability, T/C [30]: 93.2%
